Patent US20150087967A1, “METHOD AND APPARATUS USING MAGNETIC RESONANCE IMAGING FOR TISSUE PHENOTYPING AND MONITORING” (Oregon Health & Science University, priority 2012, published 2015)

Tested on: soft tissue sarcomas
Test: Phase I clinical trial in soft tissue sarcoma patients: MRI (DCE-MRI, DWI, RECIST) after two weeks of Sorafenib only treatment (TP1) versus before therapy (TP0)
Type: in vivo, human
Procedure: Patients with biopsy-proven, grade 2-3, deep, and >5 cm soft tissue sarcomas participated in a phase I clinical trial in which the vascular endothelial growth factor receptor (VEGFR) inhibitor, Sorafenib, was added to a preoperative chemoradiotherapy regimen. Research MRI studies were performed at time-point zero (TP0)—before therapy, TP1, after two weeks of Sorafenib only treatment, and TP2, after eight more weeks of treatment with Sorafenib plus chemoradiation therapy, followed by surgery and pathology review including estimation of tumor histologic necrosis. A total of eleven patients consented to the research MRI scans, with 9 of them having at least two DCE-MRI studies (at TP0 and TP1). In these 9 patients, five masses were located in the thigh, two in the calf, one in the knee, and one in the shoulder.
The MRI studies were performed using a 3T Siemens instrument with the body transmit and phased-array body matrix (combined with a spine matrix) receive RF coils. Following scout and axial T2-weighted MRI, sagittal diffusion-weighted imaging (DWI) was performed (in seven of the 9 patients) using a spin-echo single-shot EPI sequence with TE/TR=104/8000 ms, 24-36 cm FOV, 5 mm slice thickness with zero gap, 192×192 matrix size, and b values of 0, 500, and 1000 s/mm^2 applied in three orthogonal directions.
Subsequently, a 3D RF-spoiled gradient-echo sequence was used to acquire sagittal DCE-MRI data with 10 degree flip angle, TE/TR=[…], and 320×160 matrix size. […]
ADC trace maps were generated with manufacturer's DWI data processing software. […] The arterial input functions (AIFs) used for the quantitative analyses were directly measured from ROIs placed in a femoral artery (for thigh, knee, and calf tumors) and an axillary artery (for the shoulder mass). The whole tumor ROI DWI/DCE-MRI parameter values were calculated by averaging the ROI values from each of the image slices covering the entire tumor, weighted by the pixel numbers within the image slice ROIs. Pixel parameter values were analyzed with histograms and the amplitude and median values were obtained. […]

Structure (SMILES): CNC(=O)c1cc(Oc2ccc(NC(=O)Nc3ccc(Cl)c(C(F)(F)F)c3)cc2)ccn1 [Sorafenib]
- change in ADC (apparent diffusion coefficient) (% change at TP1 (two weeks of Sorafenib only) relative to TP0): small
- change in tumor size (RECIST) (% change at TP1 (two weeks of Sorafenib only) relative to TP0, 9 patients): small
- tumor vascular effect detected by DCE-MRI biomarkers (patients with grade 2-3 soft tissue sarcomas, after two weeks of Sorafenib only treatment (TP1)): Tumor vascular shut-down induced by Sorafenib preceded cell death
